The values below come from patent publication US4638047A, “Enzyme inhibition” (priority 1983, dated 1987).

Like-named read-outs stand apart in the source and are kept apart here. Residues, ends and D or L forms follow the SMILES beside them.

As a reminder, the Ki is a measure of affinity in units of concentration, obtained from inhibition or displacement. A high value points to a looser hold on the target.

The target in data set [1] is T1, human thrombin (Homo sapiens, UniProt P00734).
T1 construct: forms a lipoprotein complex with prothrombin (factor II) and cleaves it to form thrombin (factor IIa) itself
Briefly: Inhibition of human thrombin hydrolysing the chromogenic substrate S-2238 (Ki by Dixon plot). It is filed as biochemical. The protocol:
(a) Inhibition of human thrombin hydrolysing the chromogenic substrate S-2238 (for details of the method, see M. F. Scully and V. V. Kakkar, Clin. Chim. Acta 1977.79.595). Series of measurements were carried out using a number of different inhibitor concentrations and at least two different substrate concentrations. The inhibitory constant Ki was determined graphically, using a Dixon plot (M. Dixon, Biochem. J. 1953.55.170)

Data set [2] in a line: In vivo half life in plasma.
Procedure: (§1) These tests were carried out in rabbits, using between 0.1-4 mg/Kg of the inhibitor and comparing the KCCT or the thrombin clotting time in blood samples taken before and at various time intervals after the administration of inhibitors.
For data set [3] the following is noted: rabbit.
Procedure: as §1

In data set [1], `CCNC(=O)[C@@H]1CCCN1C(=O)CCC(=O)[C@@H](CCCNC(=N)N)NC(=O)[C@@H]1CCCN1C(=O)[C@@H](Cc1ccccc1)NC(=O)OC(C)(C)C` [Example H-170] showed an inhibitory constant (Ki) of 68 µM.

`CCNC(=O)[C@@H](NC(=O)[C@H](CCCNC(=N)N)NC(=O)[C@@H]1CCCN1C(=O)CCC(=O)[C@H](CCCNC(=N)N)NC(=O)[C@@H]1CCCN1C(=O)[C@H](N)Cc1ccccc1)C(C)C` [Example H-200] (HELM PEPTIDE1{[dF].P.[N=C(N)NCCC[C@H](N[*:1])C(=O)CCC(=O)[*:2]].P.R.V.[CCN[*:1]]}$$$$V2.0): the inhibition constant (Ki) in data set [1] came out at 3 µM.

`CC(C)(C)OC(=O)N[C@H](Cc1ccccc1)C(=O)N1CCC[C@H]1C(=O)N[C@@H](CCCNC(=N)N)CNCC(=O)N1CCC[C@H]1C(=O)O` [Example H-172]: the inhibition constant (Ki) in data set [1] came out at 112 µM.

Regarding heparin, the “in vivo half life in plasma” value in data set [2] was 15 min.

In data set [1], `CCNC(=O)[C@@H]1CCCN1C(=O)CCC(=O)[C@H](CCCNC(=N)N)NC(=O)[C@@H]1CCCN1C(=O)[C@H](N)Cc1ccccc1` [Example H-179] came in with a Ki of 6 µM. In addition, the “in vivo half life in plasma” value in data set [3] amounted to 18 min.
